This is an account of results in PMC8577775, “Small molecule allosteric inhibitors of RORγt block Th17-dependent inflammation and associated gene expression in vivo” (PLoS ONE, 2021).

By IC50 is commonly meant the concentration that inhibits the measured activity by half. A low value points to inhibition by little substance.

Data set [1] deals with IMQ-induced skin inflammation in Balb/c mice. The data set can be described thus: Imiquimod (IMQ)-induced skin inflammation model. It is filed as in vivo, mouse. As to conditions: for ear thickness: IMQ vehicle 0.21 ± 0.03 mm. The procedure:
For IMQ-induced skin inflammation, wild-type (WT) Balb/c female mice, 5–8 weeks of age, were purchased from Charles River Laboratories. All mice were housed in pathogen-free conditions at Bristol Myers Squibb (Cambridge, MA). Aldara cream containing 5% imiquimod (Patterson Veterinary Supply, Inc; Devens, MA) was applied to the ears daily (11–14 mg) for 3 days. Mice were treated twice daily (BID) on days 1–4 per os (PO) with vehicle (0.5% methylcellulose/0.25% Tween80) or RORγt inhibitors at indicated doses immediately prior to Aldara application. Ear thickness was measured using micro-calipers. Tissues were harvested on day 4, 2 hours following the last compound dose. Naïve mice are completely untreated, receiving neither control vehicle for IMQ nor Compound.
For RNA isolation & gene expression, ears are collected on day 4 in RNAlater (Qiagen) and stored at 4°C until processed. Ears were homogenized using Procellys 24 homogenizer & hard tissue homogenizing beads (Bertin Instruments), 2 cycles of 30 seconds @ 6000 rpm in RLT lysis buffer according to manufacturer’s instructions. RNA was isolated using RNAeasy Plus MiniPrep columns (Qiagen) and cDNA generated using SuperScript VILO cDNA Synthesis kit (Invitrogen). Gene expression was quantified using TaqMan Fast Master Mix & and TaqMan FAM-MGB probe sets (Applied Biosystems): Gapdh, Mm99999915_g1, Il17a, Mm00439618_m1, Il17f, Mm00521423_m1, Il22, Mm01226722_g1 & Bclxl, Mm00437783_m1. QPCR reactions were run on QuantStudio 7 instrument. Relative quantification and fold changes were calculated using ddCT values against Gapdh and normalized to control-treated animals. For PDAC xenografts, RNA was isolated from tumor sections using Qiagen RNeasy kit (cat#74106), then cDNA was prepared using 2 μg of RNA and the high capacity RNA to cDNA kit (Applied Biosystems, cat#4387406) as per manufacturer’s instructions. Biomarker expression was determined using Taqman gene expression probes (S1 Table) and Universal master mix (ThermoFisher Scientific cat#4305719) with expression levels normalized to Gapdh.
For cytokine production, ears are removed, split in half using forceps and floated, dermis side-down, in DMEM media (Gibco) and incubated at 37° C for 24 hours. Following incubation, media was removed and cytokine production assessed by Luminex assay (Bio-Rad Laboratories).

Data set [2] has as its system Bclxl expression in the thymus. In words: Bclxl expression in thymus after oral dosing (QPCR). As to conditions: 100 mg/kg PO, C57Bl/6 female mice; S5 Fig. It counts as in vivo, mouse. The procedure:
Supplementary file pone.0248034.s009.tif: S5 Fig RORγt inhibitors reduce Bclxl expression in thymus of rodents. C57Bl/6 female mice were dosed PO with 100 mg/kg Compound 1, 2 or 3. Thymic tissues were collected from separate cohorts at 2, 8, 16 and 24 hours post-dose (n = 3 mice/timepoint). RNA was extracted from thymic tissues and Bclxl expression measured by QPCR. […] Time zero (‘0’) used as normalization timepoint and set to 1.0 RQ and mean set at 100% for % inhibition calculation. One-way ANOVA with Bonferroni correction for multiple comparisons used for statistical significance calculations. (TIF) Click here for additional data file.

The test system of another data set is psoriasis patients. Set-up: method as in PMID 29936103. The following applies: cited from earlier work.
The next data set concerns PDAC PDO model T020P. The data set can be described thus: In vitro organoid growth assay (CellTiter-Glo 3D), T020P. As to conditions: Homo sapiens, 72 h; treated 3 days post-plating; T020P. It is filed as cell-based, human. The procedure:
(§1) Patient derived organoids were established as previously described. Briefly, PDX tumor chunks were minced then enzymatically digested into single cells by using a tumor dissociation Kit (Miltenyi, Cat# 130-095-929). Mouse and human cells were separated through magnetic separation, and isolated tumor cells were cultured on Matrigel-coated dishes. […]
(§2) Organoids were isolated and dissociated as described above. Cell numbers were counted by trypan blue exclusion and 5000 cells per well were plated on the Matrigel coated and pre-warmed 96-well plates. […] 100 μl of CellTiter-Glo® 3D reagent (Promega cat# G9682) was added to each well after desired time points and luminescence signal measured after 30 minutes.
(§3) Supplementary file pone.0248034.s010.tif: S6 Fig Schematic of Patient-derived organoids (PDO) growth & formation assays. […] After the indicated treatment schedule organoid growth or formation was assessed by CTG assay. […]
On the technique in general: Cellular ATP, detected with luciferase, serves as a proxy for viable cell number.

Data set [3] concerns PDAC PDO model T031P. The data set can be described thus: In vitro organoid growth assay (CellTiter-Glo 3D), T031P. It is filed as cell-based, human. The following applies: Homo sapiens, 72 h, treated 3 days post-plating. The procedure:
as §1, §2, §3

Data set [4] relates to PDAC PDO model T031P. The data set can be described thus: In vitro organoid formation assay (CellTiter-Glo 3D). As to conditions: Homo sapiens, PDO model not named in the sentence (Fig 8B: T020P and T031P). It is filed as cell-based. The procedure:
Patient derived organoids were established as previously described. Briefly, PDX tumor chunks were minced then enzymatically digested into single cells by using a tumor dissociation Kit (Miltenyi, Cat# 130-095-929). Mouse and human cells were separated through magnetic separation, and isolated tumor cells were cultured on Matrigel-coated dishes. Organoid cultures were maintained by growing on Matrigel in human complete maintenance media: Advanced DMEM/F12 media (Life Technology, Cat# 12634028), 10 mM HEPES (Life Technology, Cat# 15630–080), 1X Glutamax (Life Technology, Cat# 35050–061), 1X Antibiotic-Antimycotic (Life Technology, Cat# 15240–062), 10 mM Nicotinamide (Sigma-Aldrich, Cat# N0636-500G), 250 ng/mL R-Spondin-1 (Peprotech, Cat# 120–38), 100 ng/mL Noggin (Peprotech, Cat# 120-10C), 50 ng/mL EGF (Peprotech, Cat# AF-100-15), 100 ng/mL FGF10 (Peprotech, Cat# 100–26), […] (Sigma-Aldrich, Cat# G9020), 500 nM A83-01 (Sigma, Cat# SML0788), 20 μM Y-27632 (LC Laboratories, Cat# Y-5301), 1X B27 (Life Technology, Cat# 12587010), 10 ng/mL Wnt3a (R&D Systems, Cat# 5036-WN-010), 0.1% Methylcelluose (R&D Systems, Cat# HSC001) and Plasmocin (Invivogen, Cat# Ant-mpp) and were passaged every 10–14 days. Organoids were isolated from Matrigel (Corning, Cat# 08-774-406) in a cell recovery solution (Corning, Cat# CB-40253). Spheroid clusters were then dissociated into a single cell suspension with TrypLE (Gibco, Cat# 12605). […]
as §2, §3

For data set [5], the system named is human and mouse xenograft tumor growth. The arrangement: method as in PMID 30955884. As to conditions: modulation of RORγt activity; cited from earlier work.
The test system of data set [6] is KP/C pancreatic tumors in C57Bl/6 mice. The data set can be described thus: In vivo tumor growth suppression, KP/C mouse model. As to conditions: single agent vs vehicle; 28 days of dosing.
Method: Pancreatic tumor chunks from KP/C mice [20] on C57Bl/6 background were inoculated subcutaneously in the flank of syngeneic mice. […] Tumor volumes and body weight were measured twice each week.
To test whether inhibition of RORγt can lead to tumor growth inhibition we utilized the Kras^G12D/+/Trp53^null/Pdx1-cre (KP/C) mouse model of pancreatic cancer [20]. C57Bl/6 mice were inoculated in the flank with KP/C tumor chunks and enrolled in the study when the average tumor volume reached 200 mm^3. […] To evaluate target engagement, we examined changes in expression of a subset of potential RORγt target genes in tumor samples.
For data set [7], the system named is plaque psoriasis patients. As to conditions: cited from earlier work.
The test system of data set [8] is MOG35-55-induced EAE in C57BL/6 mice. The data set can be described thus: Experimental autoimmune encephalomyelitis (EAE) model. As to conditions: 3 mg/kg QD. It is filed as in vivo, mouse. Here is the method:
EAE studies were conducted at Hooke Laboratories. WT female C57BL/6 mice (Taconic Labs) 9 weeks of age were inoculated on day 0 with MOG35-55 peptide (Hooke Kit™ MOG35-55/CFA Emulsion PTX) (EK-2110, Hooke Laboratories, Lawrence MA) followed by intraperitoneal (IP) injections of pertussis toxin at 2 and 24 hours. Mice were treated twice daily (BID, starting at day 1) per os (PO) with vehicle (0.5% MC/0.25% Tween80) or RORγt inhibitors at indicated doses. FTY720 (Gilenya) was dosed once daily (QD) at 3 mg/kg starting at day 1. EAE clinical scores were evaluated daily and scored from 0–5 according to Hooke Lab EAE scoring guidelines http://hookelabs.com/services/cro/eae/MouseEAEscoring.html. Mean clinical scores & body weight loss were assessed and statistical significance calculated by Wilcoxon’s non-parametric or 2-tailed Student’s t-test, respectively. All studies performed were approved in accordance with the Institutional Animal Care and Use Committee of Bristol Myers Squibb and complied according to Bristol Myers Squibb guidelines.

`O=C(O)[C@@H]1CCC(c2nn(C(=O)c3c(Cl)cccc3C3CC3)c3cccc(F)c23)=C[C@H]1O` [Compound 2]: the “Th17-dependent gene expression and inflammation” value in data set [1] (oral administration, S4 Fig) was “inhibition of Th17-dependent gene expression and inflammation”. In addition, the “Bclxl expression in the thymus” value in data set [2] is on record as “modulation of Bclxl expression in the thymus”.
For `CCOc1cc([C@@H](CS(C)(=O)=O)N2C(=O)c3cccc(NC(C)=O)c3C2=O)ccc1OC` [Otezla], the “reduction of production of IL-17A, IL-17F, IL-22 and TNFα” value in the data set with psoriasis patients (Week 4) was 40–50%. For the same compound, the PASI-75 response rate entry in the data set on psoriasis patients (Week 16) is recorded as “approximately 30%”.
Consider `OC(c1ccc(-c2ccc(CN3CCN(Cc4ccncc4)CC3)cc2)c(F)c1)(C(F)(F)F)C(F)(F)F` [SR2211, reference compound], for which the IC50 in the data set on PDAC PDO model T020P is roughly 3 µM; with PDAC PDO model T031P [3], roughly 3 µM; in the data set with PDAC PDO model T031P [4] it was roughly 1 µM. For the same compound, the “human and mouse xenograft tumor growth” value in data set [5] is reported as “sufficient to inhibit”.
For the compound `N.N.[Cl][Pt][Cl]` [cisplatin, reference compound], the tumor volume entry in [6] is on record as “significantly reduced”.
For `O=C(O)[C@@H]1CCN(c2nn(C(=O)c3c(Cl)cccc3C(F)(F)F)c3cccc(F)c23)C[C@H]1O` [Compound 1], the ear thickness in data set [1] (day 4, 45 mg/kg PO) amounted to 0.17 ± 0.02 mm; in data set [1] (day 4, 75 mg/kg PO), 0.16 ± 0.008 mm. Besides, in data set [1] (day 4, all dose levels tested (30, 45, 75 mg/kg PO)), the “Th17-cytokine gene expression (Il17a, Il17f, Il22) in ear skin” value is given as “reduced Th17-cytokine gene expression at all dose levels tested”. Further, the “IMQ-induced IL-17A cytokine production in ear tissues” value in data set [1] (ear tissue floats cultured 24 hours ex vivo, Luminex) is “reduced IMQ-induced IL-17A cytokine production”. For the same compound, in data set [2], the “Bclxl expression in the thymus” value was “modulation of Bclxl expression in the thymus”.
As to `CCS(=O)(=O)c1ccc(CNC(=O)c2cnc3c(c2)CN(C[C@H]2CC[C@H](C(F)(F)F)CC2)[C@H]3C(C)C)nc1` [VTP-43742], the PASI-75 response rate in data set [7] (Week 4) is on record as 25–30%. Further, in [7], the “reduction in IL-17A and IL-17F levels in plasma” value is 50–75%.
With `CCCCCCCCc1ccc(CCC(N)(CO)CO)cc1` [FTY720, reference compound], the disease onset in [8] (vehicle day 12) was found to be 20 days. The “EAE clinical score (0-5)” value in data set [8] (vehicle peak 3.08 ± 0.28) is reported as 0.54 ± 0.234.
